These results are taken from ChEMBL document CHEMBL3991601, “The target landscape of clinical kinase drugs” (Science, 2017).

Active and inactive are the calls of the source. Rule as the data show it, for most assays here: actives have a measured Kd and inactives only a lower limit. Where only a bound is given, the exact number is not on record here.

Experiment [1] concerns the target Wee1-like protein kinase (Homo sapiens, UniProt P30291).
Experiment [2] has as its target T1, Phenylalanine--tRNA ligase beta subunit (Homo sapiens, UniProt Q9NSD9).
T1 sequence (Q9NSD9 whole entry): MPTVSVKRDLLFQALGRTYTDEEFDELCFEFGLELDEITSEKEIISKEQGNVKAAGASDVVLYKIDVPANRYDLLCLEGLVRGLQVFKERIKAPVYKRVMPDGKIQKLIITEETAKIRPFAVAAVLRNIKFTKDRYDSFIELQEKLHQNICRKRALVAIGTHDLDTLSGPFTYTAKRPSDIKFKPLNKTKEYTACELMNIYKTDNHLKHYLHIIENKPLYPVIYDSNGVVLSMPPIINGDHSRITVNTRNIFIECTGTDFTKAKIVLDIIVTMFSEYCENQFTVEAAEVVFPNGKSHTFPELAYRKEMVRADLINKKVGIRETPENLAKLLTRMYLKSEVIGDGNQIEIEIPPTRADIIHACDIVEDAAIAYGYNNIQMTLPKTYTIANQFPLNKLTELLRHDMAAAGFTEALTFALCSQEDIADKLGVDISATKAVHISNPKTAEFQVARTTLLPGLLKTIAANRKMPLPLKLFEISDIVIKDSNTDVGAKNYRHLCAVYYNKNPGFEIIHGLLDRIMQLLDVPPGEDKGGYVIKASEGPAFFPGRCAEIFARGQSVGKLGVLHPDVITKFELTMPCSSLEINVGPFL

Experiment [3] has as its target Calcium/calmodulin-dependent protein kinase type II subunit delta (Homo sapiens, UniProt Q13557).
For experiment [4], the target named is T2, Acyl-CoA dehydrogenase family member 10 (Homo sapiens, UniProt Q6JQN1).
T2 sequence (Q6JQN1 whole entry): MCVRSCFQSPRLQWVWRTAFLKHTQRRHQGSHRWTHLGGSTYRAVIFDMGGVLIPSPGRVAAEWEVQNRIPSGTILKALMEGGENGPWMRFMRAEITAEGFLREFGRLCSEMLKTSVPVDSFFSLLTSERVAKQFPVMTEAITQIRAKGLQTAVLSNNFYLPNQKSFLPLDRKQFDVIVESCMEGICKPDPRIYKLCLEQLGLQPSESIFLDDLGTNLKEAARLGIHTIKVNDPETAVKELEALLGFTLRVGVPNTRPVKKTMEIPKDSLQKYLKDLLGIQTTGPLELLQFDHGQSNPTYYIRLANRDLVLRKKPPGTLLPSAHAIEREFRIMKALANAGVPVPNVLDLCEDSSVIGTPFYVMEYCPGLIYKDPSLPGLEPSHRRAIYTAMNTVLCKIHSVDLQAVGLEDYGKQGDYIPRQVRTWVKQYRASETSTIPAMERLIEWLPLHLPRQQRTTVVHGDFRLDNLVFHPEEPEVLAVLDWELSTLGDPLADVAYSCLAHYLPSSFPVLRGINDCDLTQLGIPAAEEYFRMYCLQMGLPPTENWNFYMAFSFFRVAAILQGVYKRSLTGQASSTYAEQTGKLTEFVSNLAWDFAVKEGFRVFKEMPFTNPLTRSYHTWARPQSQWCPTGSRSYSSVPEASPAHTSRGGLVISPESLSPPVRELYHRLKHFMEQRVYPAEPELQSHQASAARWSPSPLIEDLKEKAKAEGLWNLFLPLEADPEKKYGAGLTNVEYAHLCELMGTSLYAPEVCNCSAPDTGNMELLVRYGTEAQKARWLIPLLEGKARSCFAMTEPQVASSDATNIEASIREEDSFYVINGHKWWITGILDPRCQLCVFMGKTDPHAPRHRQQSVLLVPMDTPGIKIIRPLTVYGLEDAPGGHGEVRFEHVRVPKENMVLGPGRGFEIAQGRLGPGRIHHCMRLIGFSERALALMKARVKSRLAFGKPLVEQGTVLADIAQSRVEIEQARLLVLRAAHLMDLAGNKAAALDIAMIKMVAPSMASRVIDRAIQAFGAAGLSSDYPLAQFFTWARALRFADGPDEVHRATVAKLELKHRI

The target of experiment [5] is Cyclin-dependent kinase 4 (Homo sapiens, UniProt P11802).
Sequence of Cyclin-dependent kinase 4 (P11802 whole entry): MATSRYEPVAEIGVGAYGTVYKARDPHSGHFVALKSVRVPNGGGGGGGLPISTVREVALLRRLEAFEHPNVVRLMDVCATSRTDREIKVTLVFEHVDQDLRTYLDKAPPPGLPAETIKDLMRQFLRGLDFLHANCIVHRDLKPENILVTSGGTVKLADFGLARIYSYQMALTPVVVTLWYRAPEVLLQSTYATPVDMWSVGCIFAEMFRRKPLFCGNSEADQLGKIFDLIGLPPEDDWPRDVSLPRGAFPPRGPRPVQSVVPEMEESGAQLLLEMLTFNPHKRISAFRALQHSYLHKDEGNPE
Experiment [6] deals with Tyrosine-protein kinase Yes (Homo sapiens, UniProt P07947).
Sequence of Tyrosine-protein kinase Yes (P07947 whole entry): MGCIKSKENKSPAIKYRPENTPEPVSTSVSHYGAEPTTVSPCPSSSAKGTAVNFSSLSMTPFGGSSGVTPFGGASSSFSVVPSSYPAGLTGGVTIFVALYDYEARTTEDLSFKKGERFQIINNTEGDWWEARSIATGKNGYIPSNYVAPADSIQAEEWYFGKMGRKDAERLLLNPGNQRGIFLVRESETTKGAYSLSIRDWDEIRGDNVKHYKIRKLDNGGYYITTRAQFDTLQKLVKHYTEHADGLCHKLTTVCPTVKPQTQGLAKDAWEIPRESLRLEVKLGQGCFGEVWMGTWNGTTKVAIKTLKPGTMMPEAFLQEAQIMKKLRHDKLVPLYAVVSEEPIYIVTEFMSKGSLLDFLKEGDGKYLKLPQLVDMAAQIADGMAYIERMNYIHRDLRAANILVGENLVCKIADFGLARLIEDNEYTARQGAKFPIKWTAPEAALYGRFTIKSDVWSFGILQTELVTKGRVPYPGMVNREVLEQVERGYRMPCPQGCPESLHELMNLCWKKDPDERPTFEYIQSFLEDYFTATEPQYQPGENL
The target in experiment [7] is T3, Mitogen-activated protein kinase kinase kinase kinase 3 (Homo sapiens, UniProt Q8IVH8).
T3 sequence (Q8IVH8 whole entry): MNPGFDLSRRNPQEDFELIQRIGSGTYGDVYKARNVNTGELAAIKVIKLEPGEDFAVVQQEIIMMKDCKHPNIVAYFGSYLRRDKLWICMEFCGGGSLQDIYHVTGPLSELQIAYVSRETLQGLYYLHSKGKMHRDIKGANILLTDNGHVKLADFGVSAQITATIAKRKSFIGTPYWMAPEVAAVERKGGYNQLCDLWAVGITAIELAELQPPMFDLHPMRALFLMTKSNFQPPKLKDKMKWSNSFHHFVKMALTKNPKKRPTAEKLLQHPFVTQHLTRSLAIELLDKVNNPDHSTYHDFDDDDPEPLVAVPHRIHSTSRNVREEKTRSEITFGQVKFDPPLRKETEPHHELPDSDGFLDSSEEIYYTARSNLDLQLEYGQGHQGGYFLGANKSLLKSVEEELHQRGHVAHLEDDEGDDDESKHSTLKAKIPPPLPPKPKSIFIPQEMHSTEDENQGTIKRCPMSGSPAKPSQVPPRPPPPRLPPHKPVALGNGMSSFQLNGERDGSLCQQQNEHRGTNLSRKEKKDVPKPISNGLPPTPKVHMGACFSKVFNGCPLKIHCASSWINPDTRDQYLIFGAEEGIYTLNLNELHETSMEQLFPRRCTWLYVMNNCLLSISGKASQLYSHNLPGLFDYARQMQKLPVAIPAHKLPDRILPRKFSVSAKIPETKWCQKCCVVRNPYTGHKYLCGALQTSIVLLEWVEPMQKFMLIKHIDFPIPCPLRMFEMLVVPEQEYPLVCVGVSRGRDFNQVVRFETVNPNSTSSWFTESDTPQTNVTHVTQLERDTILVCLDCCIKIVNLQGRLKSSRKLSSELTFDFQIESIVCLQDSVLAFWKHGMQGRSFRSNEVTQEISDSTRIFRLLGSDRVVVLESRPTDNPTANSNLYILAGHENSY

Experiment [8] deals with Epithelial discoidin domain-containing receptor 1 (Homo sapiens, UniProt Q08345).
Sequence of Epithelial discoidin domain-containing receptor 1 (Q08345 whole entry, the tested form may be a part): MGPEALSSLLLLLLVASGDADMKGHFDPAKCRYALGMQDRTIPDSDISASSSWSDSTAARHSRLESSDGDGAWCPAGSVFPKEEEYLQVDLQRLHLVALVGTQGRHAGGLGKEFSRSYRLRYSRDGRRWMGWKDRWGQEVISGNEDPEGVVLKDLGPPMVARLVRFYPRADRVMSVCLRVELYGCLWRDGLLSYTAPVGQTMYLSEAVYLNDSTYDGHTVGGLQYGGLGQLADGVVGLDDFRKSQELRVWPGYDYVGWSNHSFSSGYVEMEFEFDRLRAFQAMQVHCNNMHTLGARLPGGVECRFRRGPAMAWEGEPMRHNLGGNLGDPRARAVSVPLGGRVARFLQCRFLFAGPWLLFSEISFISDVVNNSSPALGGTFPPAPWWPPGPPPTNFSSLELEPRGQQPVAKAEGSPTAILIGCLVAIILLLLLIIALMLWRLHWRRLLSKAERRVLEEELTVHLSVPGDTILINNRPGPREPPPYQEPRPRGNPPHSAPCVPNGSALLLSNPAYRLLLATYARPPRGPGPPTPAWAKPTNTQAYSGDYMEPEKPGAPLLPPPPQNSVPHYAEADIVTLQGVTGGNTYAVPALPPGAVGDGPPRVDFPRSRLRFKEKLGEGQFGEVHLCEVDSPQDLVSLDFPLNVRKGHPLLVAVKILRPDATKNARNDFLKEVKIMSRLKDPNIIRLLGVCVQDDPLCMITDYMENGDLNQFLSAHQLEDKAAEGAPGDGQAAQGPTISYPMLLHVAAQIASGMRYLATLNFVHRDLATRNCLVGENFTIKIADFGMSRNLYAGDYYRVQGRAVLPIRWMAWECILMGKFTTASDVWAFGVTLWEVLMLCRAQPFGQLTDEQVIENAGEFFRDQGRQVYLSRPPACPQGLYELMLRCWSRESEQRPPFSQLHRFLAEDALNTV
The target in experiment [9] is Activated CDC42 kinase 1 (Homo sapiens, UniProt Q07912).
Sequence of Activated CDC42 kinase 1 (Q07912 whole entry): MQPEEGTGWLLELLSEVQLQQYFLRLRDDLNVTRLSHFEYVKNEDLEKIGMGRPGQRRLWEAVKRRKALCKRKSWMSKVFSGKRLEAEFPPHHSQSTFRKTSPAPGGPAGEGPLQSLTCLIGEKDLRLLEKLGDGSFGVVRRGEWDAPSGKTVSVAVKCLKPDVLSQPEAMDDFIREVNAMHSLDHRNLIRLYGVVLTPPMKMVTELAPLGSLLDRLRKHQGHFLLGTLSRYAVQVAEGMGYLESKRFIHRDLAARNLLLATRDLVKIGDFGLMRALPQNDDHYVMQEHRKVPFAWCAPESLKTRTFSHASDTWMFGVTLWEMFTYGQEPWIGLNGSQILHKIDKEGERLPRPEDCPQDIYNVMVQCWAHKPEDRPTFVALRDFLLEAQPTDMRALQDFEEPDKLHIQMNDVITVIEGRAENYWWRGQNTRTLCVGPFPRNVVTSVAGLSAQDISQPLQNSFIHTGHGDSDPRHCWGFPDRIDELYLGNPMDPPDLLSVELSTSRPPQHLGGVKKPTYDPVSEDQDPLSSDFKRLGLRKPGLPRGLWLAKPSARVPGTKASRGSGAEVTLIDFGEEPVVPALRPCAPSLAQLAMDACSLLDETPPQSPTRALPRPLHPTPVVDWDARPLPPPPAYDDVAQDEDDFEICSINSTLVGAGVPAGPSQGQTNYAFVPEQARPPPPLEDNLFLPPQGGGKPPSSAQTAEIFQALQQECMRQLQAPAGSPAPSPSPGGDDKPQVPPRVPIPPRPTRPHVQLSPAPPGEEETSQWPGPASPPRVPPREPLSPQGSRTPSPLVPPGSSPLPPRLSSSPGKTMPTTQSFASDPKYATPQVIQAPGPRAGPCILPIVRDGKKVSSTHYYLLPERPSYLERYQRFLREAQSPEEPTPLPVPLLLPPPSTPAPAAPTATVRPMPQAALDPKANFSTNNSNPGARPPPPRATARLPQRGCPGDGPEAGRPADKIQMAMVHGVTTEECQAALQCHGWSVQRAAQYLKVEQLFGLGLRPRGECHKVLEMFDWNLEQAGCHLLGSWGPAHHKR
Also: in the data inactive means no Kd found up to 30 µM.

Sequence of Calcium/calmodulin-dependent protein kinase type II subunit delta (Q13557 whole entry): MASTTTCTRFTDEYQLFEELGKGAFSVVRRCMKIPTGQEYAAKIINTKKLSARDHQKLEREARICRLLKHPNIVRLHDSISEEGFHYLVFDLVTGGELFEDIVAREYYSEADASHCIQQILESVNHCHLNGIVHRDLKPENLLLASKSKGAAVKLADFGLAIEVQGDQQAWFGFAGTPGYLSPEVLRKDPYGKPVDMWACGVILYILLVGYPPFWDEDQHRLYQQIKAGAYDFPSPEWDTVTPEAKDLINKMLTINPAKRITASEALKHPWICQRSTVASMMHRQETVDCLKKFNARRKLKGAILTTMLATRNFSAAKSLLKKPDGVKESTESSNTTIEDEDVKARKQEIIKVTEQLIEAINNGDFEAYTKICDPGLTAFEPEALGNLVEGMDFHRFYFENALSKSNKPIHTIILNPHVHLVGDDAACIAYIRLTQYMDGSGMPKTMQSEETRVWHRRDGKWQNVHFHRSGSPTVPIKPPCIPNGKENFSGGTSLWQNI
Sequence of Wee1-like protein kinase (P30291 whole entry): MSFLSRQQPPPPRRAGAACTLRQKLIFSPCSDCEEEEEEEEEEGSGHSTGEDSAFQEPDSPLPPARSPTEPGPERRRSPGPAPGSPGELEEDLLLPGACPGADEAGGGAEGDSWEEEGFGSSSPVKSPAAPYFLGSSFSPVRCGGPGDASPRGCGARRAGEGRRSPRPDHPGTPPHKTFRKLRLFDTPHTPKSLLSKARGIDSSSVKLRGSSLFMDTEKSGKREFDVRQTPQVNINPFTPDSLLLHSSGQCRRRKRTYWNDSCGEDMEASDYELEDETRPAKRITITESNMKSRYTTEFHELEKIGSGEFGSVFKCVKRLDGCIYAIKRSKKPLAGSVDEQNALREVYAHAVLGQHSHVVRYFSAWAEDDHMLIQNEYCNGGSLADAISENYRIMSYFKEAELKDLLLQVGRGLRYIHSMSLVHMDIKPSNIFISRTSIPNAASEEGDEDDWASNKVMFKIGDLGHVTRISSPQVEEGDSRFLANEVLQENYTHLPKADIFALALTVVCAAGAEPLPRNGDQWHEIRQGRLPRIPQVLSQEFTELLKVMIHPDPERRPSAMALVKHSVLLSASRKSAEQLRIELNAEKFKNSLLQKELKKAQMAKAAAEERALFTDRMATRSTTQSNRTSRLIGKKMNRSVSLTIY

In the case of `COc1cc(Nc2ncc(F)c(Nc3ccc4c(n3)N(COP(=O)(O)O)C(=O)C(C)(C)O4)n2)cc(OC)c1OC` [FOSTAMATINIB], the Kd in experiment [1], in experiment [2], in experiment [3], in experiment [4], in experiment [5] and in experiment [6] was > 30 µM (inactive) throughout. The Kd in [7], in [8] and in [9] was > 30 µM (inactive) in each case.
Turning to `CN1CCN(c2nc(C3=C(c4c[nH]c5ccccc45)C(=O)NC3=O)c3ccccc3n2)CC1` [SOTRASTAURIN], the Kd in [1], in experiment [2], in experiment [3], in experiment [4], in experiment [5] and in [6] was > 30 µM (inactive) throughout. Moreover, the Kd in experiment [7], in [8] and in [9] was > 30 µM (inactive) each time.
In the case of `CC(C)CC(=O)Nc1[nH]nc2c1CN(C(=O)C1CCN(C)CC1)C2(C)C` [PHA-793887], the Kd is > 30 µM (inactive) in experiment [1]; 0.003 µM in experiment [2]; > 30 µM (inactive) in [3]; > 30 µM (inactive) in experiment [4]; > 30 µM (inactive) in experiment [5]; > 30 µM (inactive) in experiment [6]. In addition, the Kd in [7], in [8] and in experiment [9] was > 30 µM (inactive) in each case.
Consider `COc1cccc2cc(-c3nc([C@H]4CC[C@H](C(=O)O)CC4)n4ncnc(N)c34)[nH]c12` [OSI-027], for which the Kd in experiment [1], in experiment [2], in [3], in [4], in [5] and in experiment [6] was > 30 µM (inactive) each time. Besides, the Kd in [7], in experiment [8] and in experiment [9] was > 30 µM (inactive) in each case.
In the case of `COc1ccc2c(OCc3nnc4ccc(-c5ccccc5)nn34)ccnc2c1` [AMG-208], the Kd in [1], in experiment [2], in experiment [3], in experiment [4], in experiment [5] and in experiment [6] was > 30 µM (inactive) throughout. Further, the Kd in [7], in experiment [8] and in experiment [9] was > 30 µM (inactive) throughout.
On to `COc1cc2ncnc(Nc3ccc(F)c(Cl)c3)c2cc1NC(=O)/C=C/CN1CCCCC1` [DACOMITINIB ANHYDROUS], for which the Kd in experiment [1], in experiment [2], in [3], in experiment [4], in experiment [5] and in [6] was > 30 µM (inactive) in each case. The Kd in experiment [7], in [8] and in experiment [9] was > 30 µM (inactive) each time.
Regarding `CC[C@@](C)(Nc1ccnc(-c2c[nH]c3ncccc23)n1)C(=O)NCC(F)(F)F` [DECERNOTINIB], the Kd in experiment [1] was > 30 µM (inactive); in [2], > 30 µM (inactive); in experiment [3] it was 20.3 µM (active); in experiment [4] it was > 30 µM (inactive); in [5], > 30 µM (inactive); in experiment [6], > 30 µM (inactive). The Kd in experiment [7], in [8] and in experiment [9] was > 30 µM (inactive) in each case.
As to `O=C(NOC[C@H](O)CO)c1ccc(F)c(F)c1Nc1ccc(I)cc1F` [MIRDAMETINIB], the Kd in [1], in [2], in experiment [3], in experiment [4], in experiment [5] and in [6] was > 30 µM (inactive) throughout. Also, the Kd in experiment [7], in [8] and in [9] was > 30 µM (inactive) in each case.
For `COc1cc2nccc(Oc3ccc(NC(=O)C4(C(=O)Nc5ccc(F)cc5)CC4)cc3)c2cc1OC` [CABOZANTINIB], the Kd in [1], in experiment [2], in experiment [3], in experiment [4], in [5] and in experiment [6] was > 30 µM (inactive) in each case. For the same compound, the Kd in experiment [7] is > 30 µM (inactive); in [8], 0.209 µM (active); in experiment [9], > 30 µM (inactive).
Take `NC[C@@](O)(c1ccc(Cl)cc1)c1ccc(-c2cn[nH]c2)cc1` [AT-13148]: the Kd in experiment [1], in experiment [2], in [3], in experiment [4], in experiment [5] and in experiment [6] was > 30 µM (inactive) each time. Besides, the Kd in [7], in [8] and in experiment [9] was > 30 µM (inactive) throughout.

As a reminder, the Kd is the constant that tells how readily two partners part at equilibrium.
